Results on 32 compounds are retold here after EP4397674A1, “CASPASE-2 INHIBITOR COMPOUNDS” (Kintsugi Therapeutics S.L., priority 2023, dated 2024).

One may read the kinact/KI as the second-order rate constant of inactivation.

Values joined by “and” are separate entries in the source; they are usually repeats but may differ in a detail not shown here. Identical values can stand only once.

Format in all cases: biochemical
For experiment [1], the target named is T1, caspase-2 (Homo sapiens, UniProt P42575).
T1 sequence (P42575 170-333 limits assumed): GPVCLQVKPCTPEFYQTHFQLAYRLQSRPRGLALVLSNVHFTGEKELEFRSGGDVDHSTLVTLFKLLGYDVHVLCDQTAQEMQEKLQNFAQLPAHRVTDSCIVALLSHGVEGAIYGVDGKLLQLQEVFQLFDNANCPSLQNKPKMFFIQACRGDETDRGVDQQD
T1 sequence (P42575 348-452 limits assumed): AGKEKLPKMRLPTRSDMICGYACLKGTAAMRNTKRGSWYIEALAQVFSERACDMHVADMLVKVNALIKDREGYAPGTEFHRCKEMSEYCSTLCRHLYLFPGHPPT
Kind of experiment: Kinetic assay of individual fluorogenic substrates NH-Idc-P4-P3-Dab-Asp-ACC (Example 4). To be noted: substrate 10µM, caspase-2 10nM, 37°C; relative to NH-Idc-hGlu-Glu(Chx)-Dab-Asp-ACC. As for the experimental part:
Caspase-2 substrates were synthesized according to standard SPPS procedure, purified on HPLC, lyophilized and dissolved in DMSO to the final concentration of 20mM (Poreba et al. 2014, CDD). In particular, the following caspase-2 substrates were synthesized to carry out the present example: [drawing 66] [drawing 67] [drawing 68] [drawing 69] [drawing 70] [drawing 71]
Prior to kinetic assay, substrates (several µL) were diluted in DMSO to the […] (working concentration). Next, 1µL of such substrate was spot into the well of 96-well plate following by the addition of […] of caspase-2 in buffer. Immediately after the enzyme was added, the plate was placed in fluorescence plate reader and the fluorescence was measured over the time in a kinetic mode (excitation 355nm, emission 460nm). The liberation of fluorescence was carried out for 30 minutes, and only linear portion of the plot was taken for analysis to calculate the rate of the reaction. The rate of best cleaved substrate was set to 100% and all other substrates were adjusted accordingly (cleavage rate, %). The final concentration of substrate was 10µM, and the final concentration of caspase-2 was 10nM. The caspase-2 assay buffer was 20mM Pipes, 100mM NaCl, sucrose 10% (w/v), 10mM DTT, pH 7.2-7.4. The caspase-2 was preincubated in buffer at 37°C for 15 min before added to the substrate.

Experiment [2] has as its target T2, caspase-3 (Homo sapiens, UniProt P42574).
T2 construct: made in house
T2 sequence (P42574 29-175 limits assumed): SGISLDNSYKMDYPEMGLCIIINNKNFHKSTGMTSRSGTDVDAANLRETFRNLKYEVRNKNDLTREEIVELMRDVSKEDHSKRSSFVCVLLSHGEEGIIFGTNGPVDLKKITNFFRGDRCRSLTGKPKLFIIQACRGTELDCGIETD
T2 sequence (P42574 176-277 limits assumed): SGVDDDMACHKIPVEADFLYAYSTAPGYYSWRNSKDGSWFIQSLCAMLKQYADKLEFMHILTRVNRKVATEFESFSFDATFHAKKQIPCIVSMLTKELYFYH
Kind of experiment: Enzymatic kinetic studies, determination of kobs/I inhibition parameter. The following applies: substrate Ac-DEVD-ACC (100uM), 37°C, dot = thousands separator; for kobs/I: pseudo-first-order conditions; for kinact/KI: 0.5 h, pH 7.3, pseudo-first-order conditions. As for the experimental part:
(§1) The measurement of kobs/l inhibition parameter (second order rate of enzyme inhibition) of synthesized inhibitors towards caspases-2, -3, and -8 was performed using a fMax spectrofluorimeter (Molecular Devices, Sunnyvale, CA, USA) operating in fluorescence kinetic mode in 96-well Corning (Corning, NY, USA) plates. Before kinetic analysis, all caspases were active site-titrated using the zVAD-fmk inhibitor (Cayman Chemical Company, Cat No. 14467). The caspases assay buffer was 10% w/v sucrose, 1M sodium citrate, 20 mM Pipes, 10 mM NaCl, 1 mM EDTA, and 10 mM DTT (pH = 7.3). Buffers were prepared at room temperature, and all kinetic assays were performed at 37°C. The kobs/l parameter was measured under pseudo-first-order kinetic conditions ([I] » [E]). Inhibitor (20uL) was diluted in a 96-well plate and mixed with the appropriate substrate (20uL); NH-ldc-hGlu-Thr(Bzl)-Ser-Asp-ACC (50uM) for caspase-2, Ac-DEVD-ACC (100uM) for caspase-3 and Ac-LEHD-ACC (100uM) for caspase-8. The ACC fluorescence was monitored using 355 nm (excitation) and 460 nm (emission) wavelengths. The substrate-inhibitor mixture (40uL in total) were pre-incubated at 37C for 15 min. At the same time in a separate tube, the caspase was preincubated in assay buffer at 37C, and after 15 min, the enzyme was added to wells (60uL per well, total reaction volume 100uL) and the fluorescence was monitored for 30min, starting immediately. Second-order rate of inhibition (kobs/l) was determined in at least three independent experiments and presented as an average value. GraphPad Prism 7 software was used for calculations (see figure 2).
(§2) The detailed protocol for the expression and purification of human apoptotic caspases can be found elsewhere (Stennicke, 1999).

In experiment [3] the target is T3, caspase-8 (Homo sapiens, UniProt Q14790).
T3 construct: made in house
The experiment is described as above. The following applies: substrate Ac-LEHD-ACC (100uM), 37°C, dot = thousands separator; for kobs/I: pseudo-first-order conditions. The procedure:
as §1, §2

The target of experiment [4] is T1, caspase-2. The experiment is described as above. The following applies: for kobs/I: Caspase-2, pseudo-first-order conditions, substrate NH-ldc-hGlu-Thr(Bzl)-Ser-Asp-ACC (50uM), 37°C, dot = thousands separator. Further details: made in house. The procedure: as §1, §2
Experiment [5] has as its target T2, caspase-3. Briefly: P2 substrates screening, rate of substrate hydrolysis (ACC fluorescence). The following applies: substrate 10mM (so in the source), caspase-3 15nM, 37°C, rate per 10nM of caspase. The procedure: (§3) The detailed protocol for the expression and purification of human apoptotic caspases can be found elsewhere (Stennicke, 1999). […] The ACC fluorescence was monitored using 355 nm (excitation) and 460 nm (emission) wavelengths. Before kinetic analysis, all caspases were active site-titrated using the zVAD-fmk inhibitor (Cayman Chemical Company, Cat No. 14467). […] Buffers were prepared at room temperature, and all kinetic assays were performed at 37°C. […] The total volume in a single well was […]. The total assay time was 30 min, but only the linear portion of the fluorescence progress curve was taken for the analysis. The kinetic data were analyzed using Graph Pad Prism software. […]

The target of experiment [6] is T3, caspase-8. The description is as above. The following applies: substrate 10mM (so in the source), caspase-8 40nM, 37°C, rate per 10nM of caspase. As for the experimental part:
as §3

Experiment [7] deals with T1, caspase-2. The experiment is described as above. Further details: made in house. As for the experimental part:
as §3

T3 sequence (Q14790 217-374 limits assumed): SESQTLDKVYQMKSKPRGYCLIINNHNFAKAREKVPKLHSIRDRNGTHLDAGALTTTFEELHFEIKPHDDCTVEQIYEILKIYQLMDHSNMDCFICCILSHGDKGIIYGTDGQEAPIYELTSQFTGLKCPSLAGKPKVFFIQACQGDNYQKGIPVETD
T3 sequence (Q14790 385-479 limits assumed): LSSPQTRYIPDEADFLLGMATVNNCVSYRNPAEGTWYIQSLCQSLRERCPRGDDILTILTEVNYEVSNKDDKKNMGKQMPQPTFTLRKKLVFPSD

Take NH-Idc-hGlu-Glu-Dab-Asp-ACC: the “RFU/s, %, average (cleavage rate, best substrate set to 100%)” value (“RFU/s, %, average” below) on caspase-2 [1] is 75,2% and 72,5%. Turning to `Cc1cccc(C)c1C(=O)OCC(=O)[C@H](CC(=O)O)NC(=O)[C@H](CCCCN)NC(=O)[C@@H](NC(=O)[C@H](CCCC(=O)O)NC(=O)[C@@H]1Cc2ccccc2N1)[C@@H](C)OCc1ccccc1` [NH-Idc-hGlu-Thr(Bzl)-Lys-Asp-AOMK], the kobs/I on caspase-3 [2] was determined as 2.570 M⁻¹ s⁻¹; at caspase-8 [3], 9.900 M⁻¹ s⁻¹; at caspase-2 [4] it was 400.000 M⁻¹ s⁻¹.

In the case of `Cc1cccc(C)c1C(=O)OCC(=O)[C@H](CC(=O)O)NC(=O)[C@H](CO)NC(=O)[C@@H](NC(=O)[C@H](CCCC(=O)O)NC(=O)[C@@H]1Cc2ccccc2N1)[C@@H](C)OCc1ccccc1` [NH-Idc-hGlu-Thr(Bzl)-Ser-Asp-AOMK, reference compound], the kobs/I on caspase-3 [2] amounted to 21.000 M⁻¹ s⁻¹; at caspase-8 [3], 11.600 M⁻¹ s⁻¹; at caspase-2 [4], 665.000 M⁻¹ s⁻¹. NH-Idc-hLeu-Glu-Dab-Asp-ACC: the “RFU/s, %, average” value on caspase-2 [1] is listed as 0,0%. As for `Cc1cccc(C)c1C(=O)OCC(=O)[C@H](CC(=O)O)NC(=O)[C@H](CCCN)NC(=O)[C@@H](NC(=O)[C@H](CCCC(=O)O)NC(=O)[C@@H]1Cc2ccccc2N1)[C@@H](C)OCc1ccccc1` [NH-Idc-hGlu-Thr(Bzl)-Orn-Asp-AOMK], on caspase-3 [2], the kinact/KI worked out at 636 M⁻¹ s⁻¹. The kobs/I was determined as 2.300 M⁻¹ s⁻¹ on caspase-8 [3] and 390.000 M⁻¹ s⁻¹ on caspase-2 [4]. Consider NH-Idc-Asp-Glu(Chx)-Dab-Asp-ACC, for which, at caspase-2 [1], the “RFU/s, %, average” value is 0,2%.

Consider NH-Idc-Ile-Glu(Chx)-Dab-Asp-ACC, for which the “RFU/s, %, average” value at caspase-2 [1] is 6,3%. NH-Idc-Asp-Val-Dab-Asp-ACC: at caspase-2 [1], the “RFU/s, %, average” value is recorded as 0,3%.

For the compound NH-Idc-Leu-Glu-Dab-Asp-ACC, at caspase-2 [1], the “RFU/s, %, average” value was 0,7%.

On to NH-Idc-hGlu-Abu-Dab-Asp-ACC, for which the “RFU/s, %, average” value on caspase-2 [1] is on record as 26,2%. With NH-Idc-hLeu-Thr(Bzl)-Dab-Asp-ACC, the “RFU/s, %, average” value at caspase-2 [1] is listed as 0,0%. On to NH-ldc-hGlu-Thr(Bzl)-Ser-Asp-ACC, for which, on caspase-3 [5], the “rate of substrate hydrolysis, Caspase-3” value is recorded as 4,75 RFU/s/10nM. For the same compound, the “rate of substrate hydrolysis, Caspase-8” value on caspase-8 [6] was 6,57 RFU/s/10nM. Also, the “Casp-2 vs Casp-3” value at caspase-2 [7] (ratio of hydrolysis rates caspase-2/caspase-3) is listed as 38,49. The “Casp-2 vs Casp-8” value on caspase-2 [7] (ratio of hydrolysis rates caspase-2/caspase-8) is 27,82. Further, the “rate of substrate hydrolysis, Caspase-2” value on caspase-2 [7] (substrate 10mM (so in the source), caspase-2 5nM, 37°C, rate per 10nM of caspase) is listed as 182,81 RFU/s/10nM. On to NH-Idc-hGlu-Glu(Chx)-Dab-Asp-ACC, for which the “RFU/s, %, average” value at caspase-2 [1] is 100,0% and 91,7%. Turning to NH-Idc-Asp-Abu-Dab-Asp-ACC, at caspase-2 [1], the “RFU/s, %, average” value is given as 0,0%.

As for NH-Idc-hGlu-Glu(Me)-Dab-Asp-ACC, the “RFU/s, %, average” value on caspase-2 [1] is 76,1%.

On to NH-Idc-Asp-Glu-Dab-Asp-ACC, for which the “RFU/s, %, average” value on caspase-2 [1] was 0,2%.

Consider NH-Idc-Ile-Abu-Dab-Asp-ACC, for which, on caspase-2 [1], the “RFU/s, %, average” value is reported as 0,0%.

For the compound NH-Idc-Leu-Thr(Bzl)-Dab-Asp-ACC, the “RFU/s, %, average” value at caspase-2 [1] is 0,0%. In the case of NH-Idc-hLeu-Glu(Chx)-Dab-Asp-ACC, the “RFU/s, %, average” value on caspase-2 [1] is listed as 0,7%. Same read-out and setting: the value for NH-Idc-Ile-Val-Dab-Asp-ACC was 0,0%; that for NH-Idc-Leu-Val-Dab-Asp-ACC was 0,0%. Consider NH-Idc-Ile-Glu-Dab-Asp-ACC, for which the “RFU/s, %, average” value at caspase-2 [1] is recorded as 0,8%. On the same count and under the same terms, the value for NH-Idc-Leu-Glu(Chx)-Dab-Asp-ACC was 6,9%; that for NH-Idc-Ile-Thr(Bzl)-Dab-Asp-ACC was 0,0%; that for NH-Idc-hLeu-Abu-Dab-Asp-ACC was 0,0%. For the compound NH-Idc-Asp-Thr(Bzl)-Dab-Asp-ACC, the “RFU/s, %, average” value at caspase-2 [1] is given as 0,0%.

Turning to NH-Idc-hLeu-Val-Dab-Asp-ACC, on caspase-2 [1], the “RFU/s, %, average” value is listed as 0,0%. For NH-Idc-Leu-Abu-Dab-Asp-ACC, the “RFU/s, %, average” value on caspase-2 [1] is on record as 0,0%. NH-Idc-hGlu-Thr(Bzl)-Dab-Asp-ACC: the “RFU/s, %, average” value at caspase-2 [1] was 5,9% and 4,6%.

In the case of `Cc1cccc(C)c1C(=O)OCC(=O)[C@H](CC(=O)O)NC(=O)[C@H](CCN)NC(=O)[C@@H](NC(=O)[C@H](CCCC(=O)O)NC(=O)[C@@H]1Cc2ccccc2N1)[C@@H](C)OCc1ccccc1` [NH-Idc-hGlu-Thr(Bzl)-Dab-Asp-AOMK], the kinact/KI at caspase-3 [2] was 443 M⁻¹ s⁻¹; on caspase-8 [3] (0.5 h, pH 7.3, pseudo-first-order conditions) it was 415 M⁻¹ s⁻¹. This compound also gave a kobs/I on caspase-2 [4] of 342.000 M⁻¹ s⁻¹. With NH-Idc-hGlu-Val-Dab-Asp-ACC, the “RFU/s, %, average” value at caspase-2 [1] was 5,6% and 6,5%.

Consider NH-Idc-hGlu-Thr(Bzl)-Dap-Asp-AOMK, for which the figures for the kobs/I at caspase-3 [2], on caspase-8 [3] and on caspase-2 [4] were 8.300 M⁻¹ s⁻¹, 5.300 M⁻¹ s⁻¹ and 372.000 M⁻¹ s⁻¹, respectively. Further, the “SELECTIVITY Caspase2 vs.Caspase3, C2/C3 kobs/I” value at caspase-2 [4] (division of kobs/I values, caspase-2/caspase-3) stood at 44.8. The “SELECTIVITY Caspase2 vs.Caspase8, C2/C8 kobs/I” value at caspase-2 [4] (division of kobs/I values, caspase-2/caspase-8) is 70.2.
